A short description of series [1]: Inhibition of inosine-5'-monophosphate dehydrogenase.
Series [2] relates to L1210. As to the kind of experiment: Cytotoxicity against mouse L1210 cells. It is filed as functional, cell-based.
The subject of series [3] is B16. As to the kind of experiment: In vivo cytotoxicity against mouse B16 cells relative to control. Type of series: functional.
The subject of series [4] is M5076. As to the kind of experiment: In vivo cytotoxicity against mouse M5076 cells relative to control. Type of series: functional.
Series [5] has as its system P388. As to the kind of experiment: In vivo cytotoxicity against mouse P388 cells relative to control. It is filed as functional.
The nature of series [6]: In vivo cytotoxicity against mouse LLC cells relative to control. It is filed as functional, Lewis lung carcinoma.
Series [7] concerns Colon 26. Nature of the series: In vivo cytotoxicity against mouse Colon 26 cells at 80 ug/kg relative to control. It is filed as functional.
Series [8] in a line: In vivo cytotoxicity against mouse EAC cells at 40 ug/kg relative to control. It is filed as functional, Ehrlich.
A short description of series [9]: In vivo cytotoxicity against mouse LLC cells at 40 ug/kg relative to control. Type of series: functional, Lewis lung carcinoma.
The test system of series [10] is B16. Nature of the series: In vivo cytotoxicity against mouse B16 cells at 40 ug/kg relative to control. It is filed as functional.
Series [11] relates to P388. As to the kind of experiment: In vivo cytotoxicity against mouse P388 cells at 80 ug/kg relative to control. Type of series: functional.
Series [12] in a line: Molluscicidal activity against common snail. Type of series: organism-based. Conditions: cornu aspersum, in vivo; read-out: LD50 (the source's name).
Series [13] in a line: Ichthyotoxicity against Carassius auratus. Type of series: organism-based. The note with it: in vivo.
Series [14] has as its system P388. Nature of the series: Cytotoxicity against mouse P388 cells. It is filed as functional, cell-based.

Data on 13 compounds can be found in ChEMBL document CHEMBL1159228, “The 1994 Japan-U.S. Seminar on Bioorganic Marine Chemistry, Meeting Report” (J Nat Prod, 1995).

Molecules are shown by their SMILES. Values after ≈ are worked out from the molar mass of the structure shown.

One may read the IC50 as the midpoint of a concentration-inhibition curve. A lower IC50 goes with greater potency. Regarding `Oc1c(Oc2c(O)c(Br)c(Br)c(Br)c2Br)cc(Br)c(Br)c1Br`, in [1], the IC50 was determined as 1 mM.
Regarding `C/C=C\[C@H](C)[C@@H]1O[C@]1(C)[C@@H](O)[C@@H](C)C(=O)[C@@H](CO)[C@@H](O)CC(=O)CC`, the IC50 in series [2] was found to be 100 ng/mL (≈ 281 nM).
One may read the T/C as the ratio of treated to control. For the compound `COc1c(C)cc2c(c1O)[C@@H]1[C@@H]3[C@H]4SCC(N)C(=O)OC[C@@H](c5c(O)c(OC)c(C)c(OC(C)=O)c54)N3[C@@H](O)[C@H](C2)N1C` (stereo partly specified), the T/C was determined as 241% in series [3], 210% in series [4], 213% in series [5] and 0% in series [6].
As for `COc1c(C)cc2c(c1O)[C@@H]1[C@@H]3[C@H]4SCC(=O)C(=O)OC[C@@H](c5c(O)c(OC)c(C)c(OC(C)=O)c54)N3[C@@H](O)[C@H](C2)N1C`, the T/C in series [3] is given as 241%; in [4], 210%; in series [5] it was 213%; in [6], 0%.
In the case of `C#CC(O)/C=C/CCCCCCCCC/C=C\CCCCCCCCCCCC/C=C\CC#CC(=O)O` (stereo unspecified), the IC50 in series [1] came out at 1 mM.
In [2], `C=C1C(O)CC(=O)C(C)/C=C(\C)C[C@@H](O)[C@]2(O)O[C@H](CC[C@H]2O)CC(O)CCC(O)C(CCCC)OC(=O)C(C)C(O)C2OC12` (stereo partly specified) [AMPHIDINOLIDE N] yielded a half-inhibitory concentration (IC50) of 0.05 ng/mL (≈ 0.0778 nM).
`COCC(C(=O)O[C@@H]1C/C=C/C=C/C(=O)O[C@H]([C@@H](C)[C@@H](O)[C@@H](C)CC[C@@H](OC(=O)C(C)N(C)C)[C@H](C)[C@H](OC(C)=O)[C@H](C)/C=C/N(C)C=O)C/C=C/[C@H](OC)C[C@H](C)C/C=C(\C)[C@@H](OC)CC[C@@H](C)[C@@H](O)[C@@H]1C)N(C)C` (stereo partly specified) [APLYRONINE A]: the T/C in [7] was determined as 255%; in [8], 398%; in series [9], 556%; in series [10], 201%; in [11] it was 545%.
Regarding `CO/C(=C\C(=O)N(C)[C@@H](Cc1ccccc1)c1nccs1)C[C@H](C)C(Cl)(Cl)Cl` [BARBARAMIDE A], in series [12], the LC50 was below 100000 ng/mL.
`O=C1NCCc2cc(Br)c(O)c(c2)Oc2ccc(cc2Br)[C@H](O)CNC(=O)/C(=N/O)Cc2cc(Br)c(O)c(c2)Oc2c(Br)cc(cc2Br)C/C1=N\O` [BASTADIN 8] returned an IC50 in [1] of 1 mM.
Same read-out and setting: under `CC1=C(O)/C(=C/C(C)CCCC(C)/C=C/C=C(\C)CCCc2ccoc2)OC1=O` (stereo unspecified) [FASCICULATIN] stands 1 mM.
`C=C(CCNC(=O)CC/C=C/C[C@H](CCCCCCC)OC)[C@@]12O[C@@H]1CC=C(C)C2=O` [MALYNGAMIDE H] registered an LC50 in series [13] of 25000 ng/mL (≈ 57900 nM).
For the compound `C[C@@H]1[C@@]2(CC[C@](C)(O)CO2)O[C@H]2C=C3[C@@H]4[C@@H](O)C[C@H]5Cc6nc7c(nc6C[C@]5(C)[C@H]4C[C@@H](O)[C@]3(C)[C@]21O)C[C@@H]1CC[C@@H]2[C@H](CC(=O)[C@]23C[C@@H]2O[C@@]4(CCC(C)(C)O4)[C@@H](C)[C@@H]2[C@]3(C)O)[C@@]1(C)C7` [RITTERAZINE A], in series [14], the IC50 worked out at 0.018 ng/mL (≈ 0.0197 nM).
As for `COc1cc2c(cc1O)CCN[C@]21CS[C@@H]2c3c(OC(C)=O)c(C)c4c(c3[C@H](COC1=O)N1[C@@H]2[C@H]2c3c(cc(C)c(OC)c3O)C[C@@H]([C@@H]1O)N2C)OCO4` [TRABECTEDIN], the T/C was 241% in series [3], 210% in [4], 213% in [5] and 0% in series [6].
